The inhibition is the change of the read-out against control, counted positive when it falls.

From ChEMBL document CHEMBL1129986, “Reliability of comparative molecular field analysis models: effects of data scaling and variable selection using a set of human synovial fluid phospholipase A2 inhibitors” (J Med Chem, 1997) come the findings set out here.

The target in the assay is T1, Phospholipase A2, membrane associated (Homo sapiens) (UniProt P14555).
T1 sequence (whole entry): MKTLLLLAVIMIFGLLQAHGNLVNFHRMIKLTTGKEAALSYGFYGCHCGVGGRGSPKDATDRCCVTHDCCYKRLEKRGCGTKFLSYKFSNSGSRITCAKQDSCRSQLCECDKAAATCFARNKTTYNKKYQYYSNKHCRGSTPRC
The assay is described as follows: Inhibitory activity against human synovial fluid phospholipase A2 (HSF-PLA2). Further details: concentration or dose not given beside the values. The following applies: concentration not given here.
The compound `CCCCCCCCCCC(=O)NC(CCCCCC)COP(=O)(O)OCCNCc1ccccc1` (stereo not given) yielded an inhibition of 28%.

`CCCCCCCCCCS(=O)(=O)N[C@H](CCCCCC)COP(=O)(O)OCCOCc1ccccc1` displayed an inhibition of 78%.

In the case of `CCCCCCCCCCS(=O)(=O)N[C@H](CCCCCC)COP(=O)(O)OCCO` (stereo in doubt; form 2), the inhibition came out at 45%.

The compound `CCCCCCCCCCS(=O)(=O)N[C@H](CCCCCC)COP(=O)(O)OCCO` (stereo in doubt; form 1) registered an inhibition of 44%.

For `CCCCCCCCCCS(=O)(=O)NC(CCCCCC)COP(=O)(O)OCCCC` (stereo not given), the inhibition was 0%.

On to `CCCCCCCCCCS(=O)(=O)N[C@@H](CCCCCC)COP(=O)(O)OCCO`, for which the inhibition worked out at 40%.

For `CCCCCCCCCCS(=O)(=O)CC(CCCCCC)COP(=O)(O)OCCO` (stereo not given), the inhibition worked out at 29%.

With `CCCCCCCCCCCC(=O)NC(CCCCCC)COP(=O)(O)OCCO` (stereo not given), the inhibition stood at 65%.

`CCCCCCCCCCS(=O)(=O)NC(CCCCCC)COCC(F)(F)F` (stereo not given) came in with an inhibition of 0%.

The compound `CCCCCCCCCCS(=O)(=O)NC(CCCCCC)COP(=O)(O)OCCO` (stereo not given) registered an inhibition of 36%.
